From US10017527B2, “KLK4 inhibitors” (Universiteit Antwerpen, priority 2014, dated 2018) come the findings set out here.

Format in all cases: biochemical
Test [1] concerns the target T1, Neurtophil Elastase(human) (Homo sapiens, UniProt P08246).
T1 construct: purchased Enzo-life sciences
T1 sequence (P08246 30-267): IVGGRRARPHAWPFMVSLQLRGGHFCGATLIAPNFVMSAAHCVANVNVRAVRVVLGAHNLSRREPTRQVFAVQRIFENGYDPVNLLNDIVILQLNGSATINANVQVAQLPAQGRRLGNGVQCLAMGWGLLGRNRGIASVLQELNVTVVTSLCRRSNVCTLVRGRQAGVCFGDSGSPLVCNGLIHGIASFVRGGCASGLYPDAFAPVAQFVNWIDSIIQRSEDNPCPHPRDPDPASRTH
Put plainly: Neutrophil elastase inhibition, chromogenic substrate MeOSuc-Ala-Ala-Pro-Val-pNA. The source says:
(§1) The IC50 values For KLK1, KLK2 and KLK8 were obtained in a similar way. For plasmin, tPA, thrombin, Fxa, HNE, Plasma kallikrein Chromogenic substrates were used (absorption: 405 nm). (KLK2, KLK4, KLK8 were supplied by Viktor Magdolen TUMunich (TUM)).

Test [2] addresses T2, uPA (recombinant) (Homo sapiens, UniProt P00749).
T2 construct: purchased Nodia
The test can be described thus: uPA inhibition, chromogenic substrate Biophen CS-61(44).

Test [3] addresses T3, Plasmine (human plasma) (Homo sapiens, UniProt P00747).
T3 construct: purchased Sigma-Aldrich; host or cells: human plasma
Put plainly: Plasmin inhibition, chromogenic substrate Biophen CS-21(66).
Description: as §1

Test [4] deals with T4, KLK8 (human) (Homo sapiens, UniProt O60259).
T4 construct: purchased Viktor Magdolen, TUMunich (TUM), supplied by an academic laboratory
T4 sequence (O60259 33-260): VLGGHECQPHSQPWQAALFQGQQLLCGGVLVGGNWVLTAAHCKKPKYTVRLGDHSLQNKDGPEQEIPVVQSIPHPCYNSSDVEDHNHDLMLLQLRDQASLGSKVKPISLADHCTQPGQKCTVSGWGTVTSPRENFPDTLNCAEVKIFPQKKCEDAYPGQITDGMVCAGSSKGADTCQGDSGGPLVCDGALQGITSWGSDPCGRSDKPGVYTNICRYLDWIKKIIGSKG
Put plainly: KLK8 inhibition, fluorogenic substrate Boc-Val-Pro-Arg-AMC.
Description: as §1

Test [5] addresses T5, Thrombine (human plasma) (Homo sapiens, UniProt P00734).
T5 construct: purchased Sigma-Aldrich; host or cells: human plasma
Put plainly: Thrombin inhibition, chromogenic substrate Biophen CS-21(66).

For test [6], the target named is T6, KLK1 (human) (Homo sapiens, UniProt P06870).
T6 construct: purchased Prospec
T6 sequence (P06870 25-262): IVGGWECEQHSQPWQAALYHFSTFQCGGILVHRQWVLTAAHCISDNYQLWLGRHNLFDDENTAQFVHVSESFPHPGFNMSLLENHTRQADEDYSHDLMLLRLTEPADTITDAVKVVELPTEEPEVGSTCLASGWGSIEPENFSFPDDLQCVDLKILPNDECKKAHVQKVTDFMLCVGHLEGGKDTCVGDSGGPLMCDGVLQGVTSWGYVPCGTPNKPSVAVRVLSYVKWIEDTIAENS
The test can be described thus: KLK1 inhibition, fluorogenic substrate H-Pro-Phe-Arg-AMC.
Description: as §1

Test [7] addresses T7, KLK4 (Homo sapiens, UniProt Q9Y5K2).
T7 construct: purchased Viktor Magdolen (TUM), supplied by an academic laboratory
The test can be described thus: KLK4 enzymatic inhibition, fluorogenic substrate Boc-Val-Pro-Arg-AMC. The procedure: The substrate was obtained form Bachem and the enzyme was provided by Viktor Magdolen (TUM). The reaction was monitored with an excitation wavelength of 355 nm and emission wavelength of 460 nm. The initial rate was determined between 2500000 and 4500000 mRFU/min. The reaction mixture contained 25 μM substrate and approximately 1 mU of enzyme in 145 μL of buffer in a final volume of […]. A 50 mM Tris buffer, pH 8.3, was used. From each inhibitor concentration, 5 μL was added, obtaining a final concentration from 0 to 250 μM in a total volume of 0.2 mL. Activity measurements were routinely performed in duplicate. […] IC50 values were obtained by fitting the data with the four-parameter logistics equation using Grafit 7.
[formula] where s=slope factor, v=rate, I0=inhibitor concentration, and range=the fitted uninhibited value minus the background. The equation assumes they falls with increasing x.
(§2) Inhibitor stock solutions were prepared in DMSO and stored at −20° C. Because the compounds described in this paper completely inactivate KLK4 following pseudo first-order kinetics, the IC50 value is inversely correlated with the second-order rate constant of inactivation. For a simple pseudo first-order inactivation process, the activity after incubation with inhibitor (vi) varies with the inhibitor concentration (i), as described in the following equation: vi=v0×e^−k t, where vo is the activity in absence of inhibitor, k is the second-order rate constant of inactivation, and t is the time. The inactivation rate constant was determined from the time course of inhibition.

The target of test [8] is T7, KLK4. Put plainly: KLK4 inactivation kinetics from progress curves (kobs vs inhibitor concentration). How it is done: as §2
The inhibitor was mixed with the substrate (250 μM final concentration), and the buffer solution with the enzyme was added at the time zero. […] The progress curves show the absorbance of aminomethylcoumarine produced as a function of time. Initially, no inhibitor is bound to the enzyme, and the tangent to the progress curve (dA/dt) is proportional to the concentration of the free enzyme. The concentration of free enzyme decreases over time due to the kinetics of inhibitor binding, as described above. Progress curves were recorded in pseudo first-order conditions ([I]0>>[E]0) and with less than 10% conversion of the substrate during the entire time course. In these conditions, dA/dt decreases exponentially with time. The progress curves were fitted with the integrated rate equation to yield a value for kobs, a pseudofirst-order rate constant At=v0[1−e^−k^obs^t]/kobs+A0 where At=absorbance at time t, A0=absorbance at time zero, and v0=uninhibited initial rate.
The apparent second-order rate constant (kapp) was calculated from the slope of the linear part of the plot of kobs versus the inhibitor concentration ([I]0). In case of competition between the inhibitor and the substrate, kapp is smaller than the “real” second order rate constant k discussed above because a certain fraction of the enzyme is present as an enzyme-substrate complex. kapp depends on the substrate concentration used in the experiment, as described by Lambeir et al. (Lambeir, Borloo et al. 1996).

Test [9] concerns the target T8, PlasmaKLK (human plasma) (Homo sapiens, UniProt P03952).
T8 construct: purchased Sigma-Aldrich; host or cells: human plasma
Put plainly: Plasma kallikrein inhibition, chromogenic substrate Biophen CS-31(02).
Description: as §1

The target of test [10] is T9, FXa (Homo sapiens, UniProt P00742).
T9 construct: purchased Nodia
T9 sequence (P00742 235-488 limits assumed): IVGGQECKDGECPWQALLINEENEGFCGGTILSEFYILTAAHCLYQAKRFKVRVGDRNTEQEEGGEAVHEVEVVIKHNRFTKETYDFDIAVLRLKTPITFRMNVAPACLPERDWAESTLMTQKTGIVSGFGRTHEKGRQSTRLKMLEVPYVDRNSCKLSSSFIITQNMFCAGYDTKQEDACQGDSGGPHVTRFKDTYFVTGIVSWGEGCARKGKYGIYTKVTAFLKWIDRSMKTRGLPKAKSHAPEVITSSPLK
T9 sequence (P00742 41-179 partner limits assumed): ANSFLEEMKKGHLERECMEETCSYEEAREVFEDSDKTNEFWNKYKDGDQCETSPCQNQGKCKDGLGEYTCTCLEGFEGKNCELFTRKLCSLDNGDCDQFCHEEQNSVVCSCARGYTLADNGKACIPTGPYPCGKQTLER
Put plainly: FXa inhibition, chromogenic substrate Biophen CS-11(32).
Description: as §1

Test [11] deals with AcHE (Homo sapiens, UniProt P22303). Put plainly: AcHE inhibition.
Sequence of AcHE (P22303 32-614): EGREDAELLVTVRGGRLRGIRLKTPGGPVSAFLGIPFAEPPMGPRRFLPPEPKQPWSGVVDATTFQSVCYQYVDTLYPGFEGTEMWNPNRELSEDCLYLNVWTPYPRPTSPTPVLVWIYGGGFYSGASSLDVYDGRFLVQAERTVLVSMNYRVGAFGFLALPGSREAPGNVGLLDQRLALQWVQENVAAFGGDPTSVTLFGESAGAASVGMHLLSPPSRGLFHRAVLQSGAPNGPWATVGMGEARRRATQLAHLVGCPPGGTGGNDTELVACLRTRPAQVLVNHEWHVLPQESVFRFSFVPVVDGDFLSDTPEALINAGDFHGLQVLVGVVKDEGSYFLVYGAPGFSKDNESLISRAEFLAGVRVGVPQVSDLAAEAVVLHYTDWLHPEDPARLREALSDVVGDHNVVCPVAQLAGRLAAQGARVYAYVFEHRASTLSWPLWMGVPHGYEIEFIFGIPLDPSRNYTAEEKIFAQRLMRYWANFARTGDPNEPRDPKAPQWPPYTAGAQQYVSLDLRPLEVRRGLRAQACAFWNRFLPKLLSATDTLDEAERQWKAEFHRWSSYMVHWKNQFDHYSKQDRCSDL
Test [12] addresses T10, Matriptase (Homo sapiens, UniProt Q9Y5Y6).
T10 sequence (Q9Y5Y6 1-855): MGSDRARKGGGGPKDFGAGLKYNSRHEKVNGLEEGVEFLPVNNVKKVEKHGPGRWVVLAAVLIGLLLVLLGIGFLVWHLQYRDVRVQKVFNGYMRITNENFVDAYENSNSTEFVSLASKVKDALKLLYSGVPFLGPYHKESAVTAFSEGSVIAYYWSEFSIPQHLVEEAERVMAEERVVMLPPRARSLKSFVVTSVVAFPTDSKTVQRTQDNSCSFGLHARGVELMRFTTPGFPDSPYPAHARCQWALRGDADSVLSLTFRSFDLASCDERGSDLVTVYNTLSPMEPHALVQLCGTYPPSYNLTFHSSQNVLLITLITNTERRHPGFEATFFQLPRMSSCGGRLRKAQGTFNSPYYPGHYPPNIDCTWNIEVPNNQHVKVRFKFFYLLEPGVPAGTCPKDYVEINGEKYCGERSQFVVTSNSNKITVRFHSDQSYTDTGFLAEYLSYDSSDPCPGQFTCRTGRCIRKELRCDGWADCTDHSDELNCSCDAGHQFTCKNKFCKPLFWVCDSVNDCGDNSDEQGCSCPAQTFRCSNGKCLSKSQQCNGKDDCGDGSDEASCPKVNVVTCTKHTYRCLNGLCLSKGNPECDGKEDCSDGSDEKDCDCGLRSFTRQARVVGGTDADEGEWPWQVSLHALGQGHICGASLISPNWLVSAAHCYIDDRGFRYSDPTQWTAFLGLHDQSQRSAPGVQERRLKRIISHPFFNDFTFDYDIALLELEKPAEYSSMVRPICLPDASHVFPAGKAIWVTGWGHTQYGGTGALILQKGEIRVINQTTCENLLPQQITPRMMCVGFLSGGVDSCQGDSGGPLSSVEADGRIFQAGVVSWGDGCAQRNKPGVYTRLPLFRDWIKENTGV
The test can be described thus: Matriptase inhibition.

Test [13] has as its target T11, tPA (recombinant) (Homo sapiens, UniProt P00750).
T11 construct: purchased Nodia
The test can be described thus: tPA inhibition, chromogenic substrate Biophen CS-05(88).
Description: as §1

The target of test [14] is T12, KLK2 (human) (Homo sapiens, UniProt P20151).
T12 construct: purchased Viktor Magdolen, TUMunich (TUM), supplied by an academic laboratory
T12 sequence (P20151 25-261): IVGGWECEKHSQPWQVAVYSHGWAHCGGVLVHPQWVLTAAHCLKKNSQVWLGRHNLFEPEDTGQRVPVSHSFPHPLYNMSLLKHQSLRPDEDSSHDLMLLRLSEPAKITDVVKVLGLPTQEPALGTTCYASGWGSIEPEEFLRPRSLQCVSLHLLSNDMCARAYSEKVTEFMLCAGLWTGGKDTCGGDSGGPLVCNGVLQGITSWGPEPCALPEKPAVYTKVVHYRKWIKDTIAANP
The test can be described thus: KLK2 inhibition, fluorogenic substrate H-Pro-Phe-Arg-AMC.
Description: as §1

Setting [15] is: Tris buffer pH 7.8, read-out: IC50 HNE.
Setting [16] is: Tris buffer pH 8.8, read-out: IC50 uPA.
[17] abbreviates: Plasmin, Tris buffer pH 7.4, read-out: IC50 PLM.
Setting [18] is: Thrombin, Tris buffer pH 8.3, read-out: IC50 THR.
Where [19] appears, read: 15 min pre-incubation at 37° C., Tris buffer pH 8.3, read-out: IC50 KLK4.
Setting [20] is: Plasma KLK, Tris buffer pH 7.8, read-out: IC50 pKLK.
Setting [21] is: Tris buffer pH 8.3, read-out: IC50 FXa.
The mark [22] stands for this setting: Tris buffer pH 8.3, read-out: IC50 tPA.

Read-outs that look alike come from different tables or passages of the source.

T11 sequence (P00750 36-562, species assumed): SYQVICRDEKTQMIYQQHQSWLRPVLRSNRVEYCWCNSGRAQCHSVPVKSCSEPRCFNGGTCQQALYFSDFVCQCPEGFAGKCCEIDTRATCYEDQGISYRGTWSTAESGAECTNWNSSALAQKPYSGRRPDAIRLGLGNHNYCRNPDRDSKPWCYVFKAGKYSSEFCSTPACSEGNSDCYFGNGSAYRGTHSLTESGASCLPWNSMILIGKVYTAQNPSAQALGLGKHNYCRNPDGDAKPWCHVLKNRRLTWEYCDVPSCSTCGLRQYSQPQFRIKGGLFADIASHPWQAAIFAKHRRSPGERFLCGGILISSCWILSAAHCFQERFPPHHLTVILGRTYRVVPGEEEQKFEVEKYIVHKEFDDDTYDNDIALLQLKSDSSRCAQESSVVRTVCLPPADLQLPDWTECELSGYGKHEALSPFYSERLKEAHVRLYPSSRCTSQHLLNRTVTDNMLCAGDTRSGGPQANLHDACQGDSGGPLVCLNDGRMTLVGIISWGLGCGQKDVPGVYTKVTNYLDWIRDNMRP
T7 sequence (Q9Y5K2 31-254): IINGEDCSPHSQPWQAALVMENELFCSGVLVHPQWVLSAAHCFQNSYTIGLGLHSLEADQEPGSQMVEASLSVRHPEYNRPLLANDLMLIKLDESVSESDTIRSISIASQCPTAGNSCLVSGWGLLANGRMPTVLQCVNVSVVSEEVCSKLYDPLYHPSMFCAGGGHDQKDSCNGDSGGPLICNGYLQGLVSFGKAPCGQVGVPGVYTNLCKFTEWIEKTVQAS
T8 sequence (P03952 391-638 limits assumed): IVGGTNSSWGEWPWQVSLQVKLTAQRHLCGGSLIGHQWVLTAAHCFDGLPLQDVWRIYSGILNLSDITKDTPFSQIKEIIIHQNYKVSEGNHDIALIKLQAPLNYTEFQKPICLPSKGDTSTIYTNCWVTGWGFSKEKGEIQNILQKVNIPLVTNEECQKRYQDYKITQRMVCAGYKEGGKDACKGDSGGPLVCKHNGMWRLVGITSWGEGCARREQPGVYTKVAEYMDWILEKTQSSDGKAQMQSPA
T8 sequence (P03952 20-390 partner limits assumed): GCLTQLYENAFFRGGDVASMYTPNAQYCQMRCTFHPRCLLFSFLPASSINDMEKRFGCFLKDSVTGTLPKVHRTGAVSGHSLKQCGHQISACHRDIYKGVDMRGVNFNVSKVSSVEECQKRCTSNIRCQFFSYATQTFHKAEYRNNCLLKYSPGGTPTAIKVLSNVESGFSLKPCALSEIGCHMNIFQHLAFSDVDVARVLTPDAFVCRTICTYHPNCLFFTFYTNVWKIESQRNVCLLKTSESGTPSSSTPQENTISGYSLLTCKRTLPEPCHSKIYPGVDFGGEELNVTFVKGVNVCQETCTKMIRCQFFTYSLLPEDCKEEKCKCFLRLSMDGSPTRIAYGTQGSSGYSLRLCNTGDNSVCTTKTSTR
T3 sequence (P00747 581-810 limits assumed): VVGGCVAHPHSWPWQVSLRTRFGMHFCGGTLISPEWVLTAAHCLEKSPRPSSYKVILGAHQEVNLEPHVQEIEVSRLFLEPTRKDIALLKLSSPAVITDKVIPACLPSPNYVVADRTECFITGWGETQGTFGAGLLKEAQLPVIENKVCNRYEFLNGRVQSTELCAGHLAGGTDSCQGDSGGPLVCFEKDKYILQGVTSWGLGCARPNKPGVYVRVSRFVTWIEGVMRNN
T3 sequence (P00747 98-580 partner limits assumed): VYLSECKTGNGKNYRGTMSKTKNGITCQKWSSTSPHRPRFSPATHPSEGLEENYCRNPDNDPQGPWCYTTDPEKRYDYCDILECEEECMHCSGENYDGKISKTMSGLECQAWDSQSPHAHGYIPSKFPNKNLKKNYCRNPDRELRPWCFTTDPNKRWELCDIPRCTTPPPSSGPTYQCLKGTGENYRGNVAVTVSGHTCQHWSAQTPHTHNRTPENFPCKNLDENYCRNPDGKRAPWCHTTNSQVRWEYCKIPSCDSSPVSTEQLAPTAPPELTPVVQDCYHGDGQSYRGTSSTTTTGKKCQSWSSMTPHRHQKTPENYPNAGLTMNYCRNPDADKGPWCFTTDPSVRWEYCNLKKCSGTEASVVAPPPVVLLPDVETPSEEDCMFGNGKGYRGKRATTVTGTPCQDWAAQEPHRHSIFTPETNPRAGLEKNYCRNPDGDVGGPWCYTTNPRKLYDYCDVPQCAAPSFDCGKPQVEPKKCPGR

Consider “2-((1E,3E,5Z)-5-(1-(6-((2-(4-(1-(diphenoxyphosphoryl)-1-(4-guanidinophenyl)-3-oxo-4,7,10-trioxa-2-azaundecan-11-yl)-1H-1,2,3-triazol-1-yl)ethyl)amino)-6-oxohexyl)-3,3-dimethylindolin-2-ylidene)penta-1,3-dien-1-yl)-1,3,3-trimethyl-3H-indol-1-ium [Compound 134]”, for which the IC50 lay in the range of 10 to 250 µM in [1] (setting [15]); 2.5 to 10 µM in test [2] (setting [16]); 10 to 250 µM in [3] (setting [17]); 2.5 to 10 µM in test [4] (Tris buffer pH 8, read-out: IC50 KLK8); 10 to 250 µM in test [5] (setting [18]); 2.5 to 10 µM in [6] (Tris buffer pH 7.8, read-out: IC50 KLK1). Further, the IC50 was 0.1 to 1 µM in test [7] (setting [19]); 10 to 250 µM in [9] (setting [20]); 2.5 to 10 µM in test [10] (setting [21]); 10 to 250 µM in [11] (read-out: IC50 AcHE); 2.5 to 10 µM in test [12] (Matriptase, read-out: IC50 MAT); more than 250 µM in [13] (setting [22]). In addition, in test [8] (apparent second-order rate constant, substrate 250 μM), the “kapp KLK4” value worked out at 2240 M⁻¹ s⁻¹. Also, the “Irreversible (KLK4)” value in [8] (irreversible binding to KLK4, Yes/No) is “Yes/”.
As for `CCCCCC(=O)NCCOC(=O)NC(c1ccc(NC(=N)N)cc1)P(=O)(Oc1ccccc1)Oc1ccccc1` (stereo not shown) [Compound 31, 2-hexanamidoethyl ((diphenoxyphosphoryl)(4-guanidinophenyl)methyl) carbamate 2,2,2-trifluoroacetaat], the IC50 in test [1] is 10 to 250 µM; in test [2], 10 to 250 µM; in test [3] it was more than 250 µM; in test [4], 10 to 250 µM; in [5] it was more than 250 µM; in test [6], 10 to 250 µM. In addition, the 50% inhibitory concentration (IC50) in test [7] was 0.1 to 1 µM; in test [9], 10 to 250 µM; in test [10], 10 to 250 µM; in [11], 10 to 250 µM; in test [12], 2.5 to 10 µM; in test [13], more than 250 µM.
With `N=C(N)Nc1ccc(C(NC(=O)OCCOCCOCc2cn(CCOCCOCCOCCNC(=O)CN3CCN(CC(=O)O)CCN(CC(=O)O)CCN(CC(=O)O)CC3)nn2)P(=O)(Oc2ccccc2)Oc2ccccc2)cc1` (stereo not shown) [Compound 83, 2,2′,2″-(10-(14-(4-(1-(diphenoxyphosphoryl)-1-(4-guanidinophenyl)-3-oxo-4,7,10-trioxa-2-azaundecan-11-yl)-1H-1,2,3-triazol-1-yl)-2-oxo-6,9,12-trioxa-3-azatetradecyl)-1,4,7,10-tetraazacyclododecane-1,4,7-triyl)triacetic acid], the half-inhibitory concentration (IC50) in [2] was 2.5 to 10 µM; in test [3], 10 to 250 µM; in test [5], 10 to 250 µM; in [6], 2.5 to 10 µM; in test [7], less than 0.1 µM; in [9] it was 10 to 250 µM. Moreover, the IC50 in [10] fell in the range of 10 to 250 µM; in [11] it was 10 to 250 µM; in test [12], 2.5 to 10 µM; in test [13], 2.5 to 10 µM.
On to `COCCOCCOC(=O)NC(c1ccc(NC(=N)N)cc1)P(=O)(Oc1ccc(NC(C)=O)cc1)Oc1ccc(NC(C)=O)cc1` (stereo not shown) [Compound 114, 2-(2-methoxyethoxy)ethyl ((bis(4-acetamidophenoxy)phosphoryl)(4-guanidinophenyl)methyl) carbamate], for which the IC50 in test [2] was 2.5 to 10 µM; in test [3], 10 to 250 µM; in test [4] it was 1 to 2.5 µM; in test [6], 2.5 to 10 µM; in test [7], less than 0.1 µM; in test [12], 1 to 2.5 µM. Moreover, the IC50 in test [14] lay in the range of 0.1 to 1 µM.
`CCN(CC)c1ccc2c(-c3ccccc3C(=O)N3CCN(C(=O)CCCCCCCn4cc(COCCOCCOC(=O)NC(c5ccc(NC(=N)N)cc5)P(=O)(Oc5ccccc5)Oc5ccccc5)nn4)CC3)c3ccc(=[N+](CC)CC)cc-3oc2c1` (stereo not shown) [Compound 133, N-(6-(diethylamino)-9-(2-(4-(8-(4-(1-(diphenoxyphosphoryl)-1-(4-guanidinophenyl)-3-oxo-4,7,10-trioxa-2-azaundecan-11-yl)-1H-1,2,3-triazol-1-yl)octanoyl)piperazine-1-carbonyl)phenyl)-3H-xanthen-3-ylidene)-N-ethylethanaminium]: the IC50 is 10 to 250 µM in [1] (setting [15]); 2.5 to 10 µM in test [2] (setting [16]); 10 to 250 µM in test [3] (setting [17]); 10 to 250 µM in test [5] (setting [18]); less than 0.1 µM in test [7] (setting [19]); 10 to 250 µM in test [9] (setting [20]). Further, the concentration for half-maximal inhibition (IC50) was 2.5 to 10 µM in test [10] (setting [21]); 2.5 to 10 µM in test [12] (Matriptase, read-out: IC50 MAT); more than 250 µM in test [13] (setting [22]).
